Assay results reported in the supplement of paper PMC10627819.

Experiments:
[1] = tested on: S. aureus Newman; assay: fitness (endpoint OD595 vs no drug) (fraction); higher = more growth
How it was run: (§1)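 In 384-well plates at 37 °C, cultures began at OD595 0.01 in 30 µl, with 55 µl used for S. pneumoniae. OD595 readings every 30 min for 14 h were corrected by the first reading. Fitness divides the stationary-phase transition optical density by the robust mean of no-drug control wells. The result is capped at 1.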

[2] = tested on: S. aureus DSM 20231; assay: Bliss interaction score (quartile over a dose matrix) (fitness difference); higher = more antagonism (negative = synergy)
How it was run: (§2)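 Each OD595 reading at entry into stationary phase was scaled to the robust mean of the untreated wells on its plate, with a ceiling of 1. These ratios define fitness, and single-drug fitness was inferred from combinations. The Bliss score compares observed fitness with the product-based expectation and is reported as quartiles across all replicate types, technical, biological and donor/recipient.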

[3] = tested on: S. aureus Newman; assay: as above
How it was run: as §2

[4] = tested on: B. subtilis 168; assay: as above
How it was run: as §2

[5] = tested on: S. pneumoniae D39V; assay: as above
How it was run: as §2

[6] = tested on: B. subtilis 168; assay: fitness (endpoint OD595 vs no drug) (fraction); higher = more growth
How it was run: as §1

[7] = tested on: S. pneumoniae D39V; assay: as above
How it was run: as §1
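Throughout, for Bliss interaction score (quartile over a dose matrix): first quartile when negative (synergy) and third quartile when positive (antagonism).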
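Throughout, for fitness (endpoint OD595 vs no drug): OD595 on entry to stationary phase over no-drug wells; at most 1.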

For `O=C(N[C@H](CO)[C@H](O)c1ccc([N+](=O)[O-])cc1)C(Cl)Cl` [Chloramphenicol] + O=C(O)c1cn(C2CC2)c2cc(N3CCNCC3)c(F)cc2c1=O [Ciprofloxacin], the fitness ([1]; first compound 0.75 µg/mL, partner 0.0375 µg/mL) was 0.644, the fitness ([1]; first compound 0.75 µg/mL, partner 0.075 µg/mL) was 0.621 and the fitness ([1]; first compound 0.75 µg/mL, partner 0.15 µg/mL) was 0.155. The fitness ([1]; first compound 1.5 µg/mL, partner 0.0375 µg/mL) was 0.487, the fitness ([1]; first compound 1.5 µg/mL, partner 0.075 µg/mL) was 0.496 and the fitness ([1]; first compound 1.5 µg/mL, partner 0.15 µg/mL) was 0.212. For the same compound, the fitness ([1]; first compound 3 µg/mL, partner 0.0375 µg/mL) was 0.154, the fitness ([1]; first compound 3 µg/mL, partner 0.075 µg/mL) was 0.182 and the Bliss interaction score [2] was 0.0505. For the same compound, the Bliss interaction score [3] was 0.126, the Bliss interaction score [4] was 0.161 and the Bliss interaction score [5] was -0.0621.

For `C/C(=C\C(=O)OCCCCCCCCC(=O)O)C[C@@H]1OC[C@H](C[C@@H]2O[C@H]2[C@@H](C)[C@H](C)O)[C@@H](O)[C@H]1O` [Pseudomonic acid] + CCCCCCCCCC(=O)N[C@@H]1[C@H]([C@@H]([C@H](O[C@H]1OC2=C3C=C4C=C2OC5=C(C=C(C=C5)[C@H]([C@H]6C(=O)N[C@@H](C7=C(C(=CC(=C7)O)OC8[C@H]([C@H]([C@@H]([C@H](O8)CO)O)O)O)C9=C(C=CC(=C9)[C@H](C(=O)N6)NC(=O)[C@@H]4NC(=O)[C@@H]1C2=CC(=CC(=C2)OC2=C(C=CC(=C2)[C@H](C(=O)N[C@H](CC2=CC(=C(O3)C=C2)Cl)C(=O)N1)N)O)O)O)C(=O)O)O[C@H]1[C@@H]([C@H]([C@@H]([C@H](O1)CO)O)O)NC(=O)C)Cl)CO)O)O [Teicoplanin], the fitness ([1]; first compound 0.0313 µg/mL, partner 0.1562 µg/mL, one replicate, main component drawn) was 0.0547, the fitness ([1]; first compound 0.0313 µg/mL, partner 0.3125 µg/mL, one replicate, main component drawn) was 0.0341 and the fitness ([1]; first compound 0.0313 µg/mL, partner 0.625 µg/mL, one replicate, main component drawn) was 0.0079. For the same compound, the fitness ([1]; first compound 0.0625 µg/mL, partner 0.1562 µg/mL, one replicate, main component drawn) was 0.0391, the fitness ([1]; first compound 0.0625 µg/mL, partner 0.3125 µg/mL, one replicate, main component drawn) was 0.0111 and the fitness ([1]; first compound 0.0625 µg/mL, partner 0.625 µg/mL, one replicate, main component drawn) was 0.0049. The fitness ([1]; first compound 0.125 µg/mL, partner 0.1562 µg/mL, one replicate, main component drawn) was 0.0327, the fitness ([1]; first compound 0.125 µg/mL, partner 0.3125 µg/mL, one replicate, main component drawn) was 0.005 and the fitness ([1]; first compound 0.125 µg/mL, partner 0.625 µg/mL, one replicate, main component drawn) was 0.0139. The Bliss interaction score ([2]; main component drawn) was -0.0304, the Bliss interaction score ([3]; main component drawn) was -0.0375 and the Bliss interaction score ([4]; main component drawn) was 0.116. For the same compound, the Bliss interaction score ([5]; main component drawn) was 0.0843.

Work on `CCC[C@@H]1C[C@@H](C(=O)N[C@@H]([C@H]2O[C@H](SC)[C@H](O)[C@@H](O)[C@H]2O)[C@@H](C)O)N(C)C1` [Lincomycin] + CN(C)C(=O)C(CCN1CCC(O)(c2ccc(Cl)cc2)CC1)(c1ccccc1)c1ccccc1 [Loperamide] yielded a fitness ([6]; first compound 0.1 µg/mL, partner 100 µg/mL) of 0.0294, a fitness ([6]; first compound 0.2 µg/mL, partner 100 µg/mL) of 0.0794 and a fitness ([6]; first compound 0.4 µg/mL, partner 100 µg/mL) of 0.0368. The fitness ([7]; first compound 0.2 µg/mL, partner 17.14 µg/mL) was 0.799, the fitness ([7]; first compound 0.2 µg/mL, partner 34.28 µg/mL) was 0.811 and the fitness ([7]; first compound 0.2 µg/mL, partner 68.57 µg/mL, one replicate) was 0.87. For the same compound, the fitness ([7]; first compound 0.215 µg/mL, partner 20 µg/mL) was 0.902, the fitness ([7]; first compound 0.215 µg/mL, partner 40 µg/mL) was 0.911 and the fitness ([7]; first compound 0.215 µg/mL, partner 80 µg/mL) was 0.897. It also gave a fitness ([7]; first compound 0.4 µg/mL, partner 17.14 µg/mL) of 0.725, a fitness ([7]; first compound 0.4 µg/mL, partner 34.28 µg/mL) of 0.685 and a fitness ([7]; first compound 0.4 µg/mL, partner 68.57 µg/mL, one replicate) of 0.769. It also gave a fitness ([7]; first compound 0.43 µg/mL, partner 20 µg/mL) of 0.827, a fitness ([7]; first compound 0.43 µg/mL, partner 40 µg/mL) of 0.83 and a fitness ([7]; first compound 0.43 µg/mL, partner 80 µg/mL) of 0.809. It also gave a fitness ([7]; first compound 0.8 µg/mL, partner 17.14 µg/mL) of 0.535, a fitness ([7]; first compound 0.8 µg/mL, partner 34.28 µg/mL) of 0.44 and a fitness ([7]; first compound 0.8 µg/mL, partner 68.57 µg/mL, one replicate) of 0.54. It also gave a fitness ([7]; first compound 0.86 µg/mL, partner 20 µg/mL) of 0.599, a fitness ([7]; first compound 0.86 µg/mL, partner 40 µg/mL) of 0.632 and a fitness ([7]; first compound 0.86 µg/mL, partner 80 µg/mL) of 0.525. The Bliss interaction score [2] was -0.058, the Bliss interaction score [3] was -0.0788 and the Bliss interaction score [4] was -0.175. For the same compound, the Bliss interaction score [5] was 0.187.

Work on `CCC[C@@H]1C[C@@H](C(=O)N[C@@H]([C@H]2O[C@H](SC)[C@H](O)[C@@H](O)[C@H]2O)[C@H](C)Cl)N(C)C1` [Clindamycin] + CN(C)C(=O)C(CCN1CCC(O)(c2ccc(Cl)cc2)CC1)(c1ccccc1)c1ccccc1 [Loperamide] yielded a fitness ([6]; first compound 0.0039 µg/mL, partner 25 µg/mL, one replicate) of 0.924, a fitness ([6]; first compound 0.0039 µg/mL, partner 50 µg/mL, one replicate) of 0.862 and a fitness ([6]; first compound 0.0039 µg/mL, partner 100 µg/mL, one replicate) of 0.53. The fitness ([6]; first compound 0.0078 µg/mL, partner 25 µg/mL, one replicate) was 0.814, the fitness ([6]; first compound 0.0078 µg/mL, partner 50 µg/mL, one replicate) was 0.754 and the fitness ([6]; first compound 0.0078 µg/mL, partner 100 µg/mL, one replicate) was 0.385. It also gave a fitness ([6]; first compound 0.0156 µg/mL, partner 25 µg/mL, one replicate) of 0.793, a fitness ([6]; first compound 0.0156 µg/mL, partner 50 µg/mL, one replicate) of 0.595 and a fitness ([6]; first compound 0.0156 µg/mL, partner 100 µg/mL, one replicate) of 0.259. It also gave a fitness ([6]; first compound 0.0625 µg/mL, partner 25 µg/mL) of 0.577, a fitness ([6]; first compound 0.0625 µg/mL, partner 50 µg/mL) of 0.0289 and a fitness ([6]; first compound 0.0625 µg/mL, partner 100 µg/mL) of 0.0293. The fitness ([6]; first compound 0.125 µg/mL, partner 25 µg/mL) was 0.418, the fitness ([6]; first compound 0.125 µg/mL, partner 50 µg/mL) was 0.0399 and the fitness ([6]; first compound 0.125 µg/mL, partner 100 µg/mL) was 0.0277. For the same compound, the fitness ([6]; first compound 0.25 µg/mL, partner 25 µg/mL) was 0.254, the fitness ([6]; first compound 0.25 µg/mL, partner 50 µg/mL) was 0.0473 and the fitness ([6]; first compound 0.25 µg/mL, partner 100 µg/mL) was 0.0404. The fitness ([7]; first compound 0.0125 µg/mL, partner 20 µg/mL) was 0.82, the fitness ([7]; first compound 0.0125 µg/mL, partner 40 µg/mL) was 0.859 and the fitness ([7]; first compound 0.0125 µg/mL, partner 80 µg/mL) was 0.858. The fitness ([7]; first compound 0.015 µg/mL, partner 17.14 µg/mL) was 0.938, the fitness ([7]; first compound 0.015 µg/mL, partner 34.28 µg/mL) was 0.946 and the fitness ([7]; first compound 0.015 µg/mL, partner 68.57 µg/mL, one replicate) was 0.982. The fitness ([7]; first compound 0.025 µg/mL, partner 20 µg/mL) was 0.614, the fitness ([7]; first compound 0.025 µg/mL, partner 40 µg/mL) was 0.62 and the fitness ([7]; first compound 0.025 µg/mL, partner 80 µg/mL) was 0.597. The fitness ([7]; first compound 0.03 µg/mL, partner 17.14 µg/mL) was 0.778, the fitness ([7]; first compound 0.03 µg/mL, partner 34.28 µg/mL) was 0.769 and the fitness ([7]; first compound 0.03 µg/mL, partner 68.57 µg/mL, one replicate) was 0.896. The fitness ([7]; first compound 0.05 µg/mL, partner 20 µg/mL) was 0.316, the fitness ([7]; first compound 0.05 µg/mL, partner 40 µg/mL) was 0.329 and the fitness ([7]; first compound 0.05 µg/mL, partner 80 µg/mL) was 0.285. It also gave a fitness ([7]; first compound 0.06 µg/mL, partner 17.14 µg/mL) of 0.688, a fitness ([7]; first compound 0.06 µg/mL, partner 34.28 µg/mL) of 0.639 and a fitness ([7]; first compound 0.06 µg/mL, partner 68.57 µg/mL, one replicate) of 0.725. It also gave a Bliss interaction score [2] of 0.0957, a Bliss interaction score [3] of -0.0895 and a Bliss interaction score [4] of 0.149. The Bliss interaction score [5] was 0.2.
